In patent publication US7605182B2, “Compounds that selectively bind to membranes of apoptotic cells” (Aposense Ltd., priority 2003, dated 2009):

System: apoptotic Jurkat cells
Assay: Selective binding of NST-892 to apoptotic Jurkat cells; flow-cytometric (FACS) analysis
Assay type: cell-based, human
Conditions: 500 μM compound, 20 minutes
Description: Cultured Jurkat cells (human […] T cell leukemia cells) were grown in suspension in RPMI medium (Beit-Haemek, Israel), supplemented with 10% of fetal calf serum (FCS), 4 mM of L-glutamine, 1 mM of sodium pyruvate, 1 mM CaCl2 and antibiotics (100 units/ml penicilin; 100 μg/ml streptomycin and 12.5 units/ml of nystatin) Prior to induction of apoptosis, medium was replaced with HBS buffer (10 mM HEPES; 140 mM NaCl, 1 mM CaCl). Apoptosis was then triggered by treatment with anti-Fas Ab (0.1 μg/ml; 2.5 hrs). Both control cells and apoptotic cells were then incubated for 20 minutes with 500 μM of NST-892 dissolved in 0.1 m NaPpi pH=7.4. Subsequently, cells were co-stained with propidium iodide (PI), a marker of membrane disintegration during late phases of cell death, and the selective binding of the NST-892 compounds to control and apoptotic cells was determined by flow cytometric (FACS) analysis using Becton-Dickinson cell sorter and CellQuest software (excitation was at 356 nm and emission was measured at 530 nm).

## CN(C)c1cccc2c(S(=O)(=O)NC(C(=O)O)c3cccc4c(C(N)C(=O)O)cccc34)cccc12 (centres unmarked) [NST-892, Mono Dansyl Naphthalene Diglycine]
Apoptotic Jurkat cells (anti-Fas Ab 0.1 μg/ml; 2.5 hrs)
  percent of identified early apoptotic events within the population (cells binding NST-892, excluding PI): 68.9%
non-treated control Jurkat cells
  percent of identified early apoptotic events within the population (cells binding NST-892, excluding PI): 3.3%
